Results reported in ChEMBL document CHEMBL3879901, “Substituted isoquinolin-1(2H)-ones, and methods of use thereof” (2012).

Legend:
[1] = Antiproliferative activity against Balb/c mouse splenic B cells preincubated for 30 mins followed by LPS or F(ab')2 donkey anti-mouse IgM and recombinant mouse IL4 stimulation measured after 72 hrs by Alamar Blue reduction assay; format: functional, cell-based
[2] = molecular target: Phosphatidylinositol 4,5-bisphosphate 3-kinase catalytic subunit gamma isoform (Homo sapiens, UniProt P48736); test: Inhibition of recombinant human C-terminal His6-tagged p110gamma expressed in insect cells using phosphatidylinositol as substrate in presence of gamma-32P-ATP after 5 mins by thin layer chromatographic method
[3] = molecular target: PI3-kinase p110-delta/p85-alpha (Homo sapiens, UniProt O00329); test: Inhibition of N-terminal His6-tagged recombinant full-length human p110delta/untagged recombinant full length p85alpha expressed in baculovirus infected Sf21 cells using phosphatidylinositol as substrate in presence of gamma-32P-ATP after 5 mins by thin layer chromatographic method
[4] = molecular target: PI3-kinase p110-alpha/p85-alpha (Homo sapiens, UniProt P42336); test: Inhibition of N-terminal His6-tagged recombinant full-length human p110alpha/untagged recombinant full length human p85alpha expressed in baculovirus infected Sf21 cells using phosphatidylinositol as substrate in presence of gamma-32P-ATP after 5 mins by thin layer chromatographic method
PI3K p110 beta/p85 alpha = PI3K p110 beta/p85 alpha (Homo sapiens, UniProt P42338); test: Inhibition of N-terminal His6-tagged recombinant full-length human p110beta/untagged recombinant full length p85alpha expressed in baculovirus infected Sf21 cells using phosphatidylinositol as substrate in presence of gamma-32P-ATP after 5 mins by thin layer chromatographic method
PI3K p110 beta/p85 alpha, sequence (P27986 whole entry): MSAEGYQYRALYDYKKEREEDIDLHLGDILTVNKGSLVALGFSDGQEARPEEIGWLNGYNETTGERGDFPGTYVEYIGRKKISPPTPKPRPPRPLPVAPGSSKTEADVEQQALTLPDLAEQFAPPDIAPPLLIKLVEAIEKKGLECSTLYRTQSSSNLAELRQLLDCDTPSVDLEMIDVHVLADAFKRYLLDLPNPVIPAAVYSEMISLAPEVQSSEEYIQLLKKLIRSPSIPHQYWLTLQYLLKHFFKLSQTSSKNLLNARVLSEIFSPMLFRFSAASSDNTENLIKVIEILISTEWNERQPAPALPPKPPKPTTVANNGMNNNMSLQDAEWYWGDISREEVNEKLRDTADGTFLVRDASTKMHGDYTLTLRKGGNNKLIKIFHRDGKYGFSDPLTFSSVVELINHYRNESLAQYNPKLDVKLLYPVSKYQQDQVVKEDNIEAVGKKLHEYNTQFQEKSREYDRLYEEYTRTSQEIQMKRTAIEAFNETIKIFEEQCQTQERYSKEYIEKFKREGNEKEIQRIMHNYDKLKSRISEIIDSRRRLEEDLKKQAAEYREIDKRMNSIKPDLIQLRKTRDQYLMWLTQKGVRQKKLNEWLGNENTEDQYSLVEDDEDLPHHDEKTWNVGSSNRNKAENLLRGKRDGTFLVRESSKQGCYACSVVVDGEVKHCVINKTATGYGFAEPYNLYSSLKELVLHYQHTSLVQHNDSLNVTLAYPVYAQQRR
PI3K p110 beta/p85 alpha, sequence (P42338 whole entry): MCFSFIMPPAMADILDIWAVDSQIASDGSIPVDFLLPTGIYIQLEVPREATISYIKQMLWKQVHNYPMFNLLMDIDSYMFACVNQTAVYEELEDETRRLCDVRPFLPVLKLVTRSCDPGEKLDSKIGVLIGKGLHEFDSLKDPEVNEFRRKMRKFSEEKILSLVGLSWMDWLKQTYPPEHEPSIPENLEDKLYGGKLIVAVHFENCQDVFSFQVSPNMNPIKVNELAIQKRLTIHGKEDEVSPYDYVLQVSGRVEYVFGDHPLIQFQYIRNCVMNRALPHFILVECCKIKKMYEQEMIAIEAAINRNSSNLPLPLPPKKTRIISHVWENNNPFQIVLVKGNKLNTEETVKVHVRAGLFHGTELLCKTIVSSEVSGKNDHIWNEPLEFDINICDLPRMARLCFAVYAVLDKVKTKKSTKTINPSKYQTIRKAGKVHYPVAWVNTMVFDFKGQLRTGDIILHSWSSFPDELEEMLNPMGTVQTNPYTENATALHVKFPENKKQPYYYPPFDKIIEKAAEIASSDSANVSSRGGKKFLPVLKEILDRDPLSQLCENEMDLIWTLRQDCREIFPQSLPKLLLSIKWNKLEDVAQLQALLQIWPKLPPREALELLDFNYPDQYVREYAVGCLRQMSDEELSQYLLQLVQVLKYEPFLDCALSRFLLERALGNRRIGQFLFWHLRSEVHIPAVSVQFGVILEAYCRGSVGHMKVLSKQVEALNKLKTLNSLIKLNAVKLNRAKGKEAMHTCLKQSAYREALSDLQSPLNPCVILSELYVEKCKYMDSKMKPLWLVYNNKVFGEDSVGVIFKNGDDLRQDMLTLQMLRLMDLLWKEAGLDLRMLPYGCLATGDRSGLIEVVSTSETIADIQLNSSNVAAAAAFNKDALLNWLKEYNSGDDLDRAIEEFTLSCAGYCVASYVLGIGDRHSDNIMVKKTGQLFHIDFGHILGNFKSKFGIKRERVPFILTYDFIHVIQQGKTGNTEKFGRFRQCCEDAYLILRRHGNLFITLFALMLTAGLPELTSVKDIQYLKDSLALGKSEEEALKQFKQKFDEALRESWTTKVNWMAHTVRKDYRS

Phosphatidylinositol 4,5-bisphosphate 3-kinase catalytic subunit gamma isoform, sequence (P48736 whole entry, canonical isoform): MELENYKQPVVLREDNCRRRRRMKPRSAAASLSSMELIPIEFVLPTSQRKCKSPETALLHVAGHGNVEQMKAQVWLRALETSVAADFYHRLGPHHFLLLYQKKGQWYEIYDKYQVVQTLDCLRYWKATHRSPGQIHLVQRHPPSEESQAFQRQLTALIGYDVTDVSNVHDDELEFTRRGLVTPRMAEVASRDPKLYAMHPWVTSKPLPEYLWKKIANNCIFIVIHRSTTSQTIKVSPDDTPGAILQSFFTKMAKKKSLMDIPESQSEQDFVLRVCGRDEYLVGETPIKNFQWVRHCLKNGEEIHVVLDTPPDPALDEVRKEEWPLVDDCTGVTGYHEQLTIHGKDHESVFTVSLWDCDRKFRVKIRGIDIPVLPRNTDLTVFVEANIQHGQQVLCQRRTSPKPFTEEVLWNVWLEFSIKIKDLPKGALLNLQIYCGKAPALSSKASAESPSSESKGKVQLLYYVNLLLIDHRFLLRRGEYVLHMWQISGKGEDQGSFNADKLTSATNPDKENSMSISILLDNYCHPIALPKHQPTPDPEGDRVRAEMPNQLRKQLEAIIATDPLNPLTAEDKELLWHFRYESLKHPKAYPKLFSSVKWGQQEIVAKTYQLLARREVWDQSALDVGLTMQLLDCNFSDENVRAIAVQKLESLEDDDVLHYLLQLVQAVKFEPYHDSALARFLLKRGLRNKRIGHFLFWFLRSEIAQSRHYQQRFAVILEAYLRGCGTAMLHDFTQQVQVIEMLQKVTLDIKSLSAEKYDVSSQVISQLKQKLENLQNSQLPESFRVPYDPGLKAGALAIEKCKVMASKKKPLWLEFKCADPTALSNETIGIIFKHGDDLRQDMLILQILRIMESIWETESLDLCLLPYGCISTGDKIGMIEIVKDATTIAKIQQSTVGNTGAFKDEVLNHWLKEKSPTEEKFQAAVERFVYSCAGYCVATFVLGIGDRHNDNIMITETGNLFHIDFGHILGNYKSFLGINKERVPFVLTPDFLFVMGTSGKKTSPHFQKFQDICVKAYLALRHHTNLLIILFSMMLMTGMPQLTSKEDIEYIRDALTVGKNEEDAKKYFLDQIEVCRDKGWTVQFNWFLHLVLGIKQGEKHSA
PI3-kinase p110-alpha/p85-alpha, sequence (P27986 whole entry): as the sequence (P27986 whole entry) above
PI3-kinase p110-alpha/p85-alpha, sequence (P42336 whole entry): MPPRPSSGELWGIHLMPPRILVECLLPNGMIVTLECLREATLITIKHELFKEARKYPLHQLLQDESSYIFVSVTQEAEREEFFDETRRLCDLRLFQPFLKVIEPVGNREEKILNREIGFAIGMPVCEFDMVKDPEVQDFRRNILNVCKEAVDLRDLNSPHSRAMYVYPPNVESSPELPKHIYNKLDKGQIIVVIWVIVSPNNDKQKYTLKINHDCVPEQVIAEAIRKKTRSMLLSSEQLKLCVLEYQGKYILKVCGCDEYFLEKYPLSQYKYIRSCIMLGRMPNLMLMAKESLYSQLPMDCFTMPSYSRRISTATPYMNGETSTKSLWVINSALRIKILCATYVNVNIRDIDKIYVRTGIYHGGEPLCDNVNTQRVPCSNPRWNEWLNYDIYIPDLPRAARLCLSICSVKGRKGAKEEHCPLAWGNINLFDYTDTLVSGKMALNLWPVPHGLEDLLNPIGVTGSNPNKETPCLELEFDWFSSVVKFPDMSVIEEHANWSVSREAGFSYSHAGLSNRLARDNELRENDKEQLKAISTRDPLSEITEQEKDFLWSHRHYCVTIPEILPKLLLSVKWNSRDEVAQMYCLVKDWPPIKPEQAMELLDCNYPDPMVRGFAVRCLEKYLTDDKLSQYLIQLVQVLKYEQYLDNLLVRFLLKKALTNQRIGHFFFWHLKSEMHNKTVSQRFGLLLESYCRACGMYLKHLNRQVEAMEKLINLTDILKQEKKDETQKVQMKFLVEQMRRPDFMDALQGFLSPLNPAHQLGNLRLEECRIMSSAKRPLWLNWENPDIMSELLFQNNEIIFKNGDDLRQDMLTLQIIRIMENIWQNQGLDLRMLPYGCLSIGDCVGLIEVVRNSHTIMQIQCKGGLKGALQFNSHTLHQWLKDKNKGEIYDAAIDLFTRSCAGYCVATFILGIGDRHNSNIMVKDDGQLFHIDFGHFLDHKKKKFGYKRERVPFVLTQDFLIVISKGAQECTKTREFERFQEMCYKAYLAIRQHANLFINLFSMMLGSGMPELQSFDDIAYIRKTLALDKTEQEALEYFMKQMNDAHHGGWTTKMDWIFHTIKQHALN
PI3-kinase p110-delta/p85-alpha, sequence (P27986 whole entry): as the sequence (P27986 whole entry) above
PI3-kinase p110-delta/p85-alpha, sequence (O00329 whole entry): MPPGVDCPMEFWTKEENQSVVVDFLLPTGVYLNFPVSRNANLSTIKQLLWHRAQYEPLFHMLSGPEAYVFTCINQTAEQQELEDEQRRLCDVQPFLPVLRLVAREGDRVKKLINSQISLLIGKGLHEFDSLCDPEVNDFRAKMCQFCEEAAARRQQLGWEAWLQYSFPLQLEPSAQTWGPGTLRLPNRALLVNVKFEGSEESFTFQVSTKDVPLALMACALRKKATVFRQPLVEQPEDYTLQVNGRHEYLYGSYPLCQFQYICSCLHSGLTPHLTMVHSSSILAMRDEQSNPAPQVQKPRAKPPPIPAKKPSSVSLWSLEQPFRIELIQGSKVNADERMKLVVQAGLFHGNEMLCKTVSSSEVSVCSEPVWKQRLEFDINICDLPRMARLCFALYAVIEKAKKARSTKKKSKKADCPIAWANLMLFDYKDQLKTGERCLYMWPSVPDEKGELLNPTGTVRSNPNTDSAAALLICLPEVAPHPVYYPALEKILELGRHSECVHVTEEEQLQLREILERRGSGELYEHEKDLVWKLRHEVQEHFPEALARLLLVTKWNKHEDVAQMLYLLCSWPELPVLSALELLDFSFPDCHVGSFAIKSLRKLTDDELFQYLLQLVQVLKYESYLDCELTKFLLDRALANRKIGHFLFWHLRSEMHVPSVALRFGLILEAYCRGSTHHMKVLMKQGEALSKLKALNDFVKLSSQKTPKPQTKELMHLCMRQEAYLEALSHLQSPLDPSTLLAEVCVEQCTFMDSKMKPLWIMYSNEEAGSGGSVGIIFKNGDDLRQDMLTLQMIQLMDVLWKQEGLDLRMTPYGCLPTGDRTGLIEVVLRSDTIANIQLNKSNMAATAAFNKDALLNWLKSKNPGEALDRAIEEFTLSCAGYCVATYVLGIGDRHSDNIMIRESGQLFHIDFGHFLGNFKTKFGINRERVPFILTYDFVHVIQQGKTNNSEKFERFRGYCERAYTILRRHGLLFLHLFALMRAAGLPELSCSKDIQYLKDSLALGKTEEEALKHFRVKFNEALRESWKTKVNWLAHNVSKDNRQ

SMILES | IC50 [2] [nM] | IC50 [3] [nM] | IC50 [4] [nM] | IC50 (PI3K p110 beta/p85 alpha) [nM] | EC50 [1] [nM]
CC(=O)Nc1nc2ccc(-c3nn(Cc4cc5cccc(C)c5c(=O)n4-c4ccccc4)c4ncnc(N)c34)cc2[nH]1 | < 100 |  |  |  | 
Cc1cccc2cc(Cn3nc(C#CC4CC4)c4c(N)ncnc43)n(-c3ccccc3F)c(=O)c12 | > 10000 | < 1000 |  |  | < 1000
Cc1cccc2cc([C@H](C)Nc3ncnc4[nH]cnc34)n(C3CCC3)c(=O)c12 | < 100 |  |  |  | < 100
Cc1cccc2cc([C@H](C)Nc3ncnc4[nH]cnc34)n(C(C)C)c(=O)c12 | < 100 |  |  |  | < 100
Cc1cccc2cc(Cn3nc(-c4ccc5nc(N)oc5c4)c4c(N)ncnc43)n(-c3ccccc3)c(=O)c12 | 100 to 1000 |  |  |  | < 10000
COc1ccc(-c2nn(Cc3cc4cccc(C)c4c(=O)n3-c3ccccc3C)c3ncnc(N)c23)cc1OC |  | < 1000 | > 10000 | > 10000 | < 100
Cc1ccccc1-n1c(Cn2nc(-c3ccc(O)cc3)c3c(N)ncnc32)cc2cccc(C)c2c1=O |  | < 1000 | > 10000 | > 10000 | < 1000
Cc1cccc2cc(Cn3nc(-c4ccc(O)c(F)c4)c4c(N)ncnc43)n(-c3ccccc3F)c(=O)c12 |  | < 1000 | > 10000 | > 10000 | < 1000
Cc1cccnc1-n1c(Cn2nc(-c3cccc(O)c3)c3c(N)ncnc32)cc2ccccc2c1=O | < 10000 | < 1000 |  |  | 
COc1cc(-c2nn(Cc3cc4cccc(C)c4c(=O)n3-c3ccccc3C)c3ncnc(N)c23)ccc1Cl |  | < 1000 | > 10000 | > 10000 | < 1000
Cc1cccc2cc([C@H](C)Nc3ncnc4[nH]cnc34)n(-c3cccc(F)c3)c(=O)c12 | < 100 |  |  |  | < 100
Cc1cccnc1-n1c(Cn2nc(-c3ccc(F)c(O)c3)c3c(N)ncnc32)cc2cccc(C)c2c1=O |  | < 100 | > 10000 | > 10000 | < 100
Cc1cccc2cc(Cn3nc(-c4cc(O)cc(F)c4)c4c(N)ncnc43)n(C3CCCC3)c(=O)c12 |  | < 100 | < 10000 | < 10000 | < 100
Cc1ccccc1-n1c(Cn2nc(-c3ccc4nc(N)ncc4c3)c3c(N)ncnc32)cc2cccc(C)c2c1=O |  | < 100 | < 100000 | < 1000 | < 100
Cc1cccc2cc(Cn3nc(-c4cc(O)cc(F)c4)c4c(N)ncnc43)n(-c3ccccc3F)c(=O)c12 |  | < 100 | < 10000 | < 10000 | < 100
Cc1cccc2cc(Cn3nc(-c4ccc(O)c(Cl)c4)c4c(N)ncnc43)n(-c3ccccc3F)c(=O)c12 |  | < 1000 | > 10000 | > 10000 | < 10000
Cc1cccc2cc(Cn3nc(-c4cccc(O)c4)c4c(N)ncnc43)n(C3CC3)c(=O)c12 |  | < 100 | < 1000 | < 1000 | < 100
COc1ccccc1-n1c(Cn2nc(-c3cccc(O)c3)c3c(N)ncnc32)cc2cccc(C)c2c1=O |  | < 100 | > 10000 | < 10000 | < 100
CCc1ccccc1-n1c(Cn2nc(-c3cc(O)cc(F)c3)c3c(N)ncnc32)cc2cccc(C)c2c1=O |  | < 100 | < 10000 | < 1000 | < 100
Cc1ccccc1-n1c(Cn2nc(-c3ccc(O)c(Cl)c3)c3c(N)ncnc32)cc2cccc(C)c2c1=O |  | < 100 | > 10000 | < 10000 | < 1000
CC(=O)Nc1nc2ccc(-c3nn(Cc4cc5cccc(C)c5c(=O)n4C)c4ncnc(N)c34)cc2s1 |  | < 100 | < 100000 | < 1000 | < 100

Second part, led by results:

IC50 [2] [nM] | IC50 [3] [nM] | IC50 [4] [nM] | IC50 (PI3K p110 beta/p85 alpha) [nM] | SMILES | EC50 [1] [nM]
< 100 | < 100 |  |  | Cc1ccccc1-n1c(Cn2nc(-c3nn[nH]n3)c3c(N)ncnc32)cc2cccc(C)c2c1=O | < 10000
< 100 | < 100 |  |  | Cc1ccccc1-n1c(Cn2nc(C(F)F)c3c(N)ncnc32)cc2cccc(C)c2c1=O | < 100
< 100 | < 100 |  |  | Cc1cccc2cc(Cn3nc(CF)c4c(N)ncnc43)n(-c3ccccc3)c(=O)c12 | < 100
< 100 | < 100 |  |  | Cc1cccc2cc([C@H](C)Nc3nc(N)ncc3Cl)n(-c3ccccc3)c(=O)c12 | < 100
< 100 | < 100 |  |  | CCC(Nc1ncnc2[nH]cnc12)c1cc2cccc(C)c2c(=O)n1-c1ccc(F)cc1 (configuration not stated) | < 100
< 100 | < 100 |  |  | Cc1cccc2cc([C@H](C)Nc3ncnc4[nH]cnc34)n(-c3ccccc3)c(=O)c12 | < 100
< 100 | < 100 |  |  | Cc1cccc2cc([C@H](C)Nc3nc(N)nc4[nH]cnc34)n(-c3ccccc3)c(=O)c12 | 
< 100 | < 100 |  |  | Cc1cccc2cc([C@H](C)Nc3nc(Cl)nc4[nH]cnc34)n(-c3ccccc3)c(=O)c12 | < 100
< 100 | < 100 |  |  | Cc1cccc2cc([C@H](C)Nc3nc(N)ncc3C(F)(F)F)n(-c3ccccc3)c(=O)c12 | 
 | < 100 | > 10000 | < 10000 | Cc1ccccc1-n1c(Cn2nc(-c3cccc(O)c3)c3c(N)ncnc32)cc2cccc(C)c2c1=O | < 100
 | < 100 | > 10000 | < 10000 | Cc1cccc2cc(Cn3nc(-c4cccc(O)c4)c4c(N)ncnc43)n(C3CCC3)c(=O)c12 | < 1000
< 100 | < 100 |  |  | Cc1cccnc1-n1c(Cn2nc(-c3ccc4oc(N)nc4c3)c3c(N)ncnc32)cc2cccc(C)c2c1=O | 
 | < 100 | < 10000 | < 1000 | Cc1cccc2cc(Cn3nc(-c4cn[nH]c4)c4c(N)ncnc43)n(-c3ccccc3C(C)C)c(=O)c12 | < 100
 | < 100 | > 10000 | < 10000 | Cc1cccc2cc(Cn3nc(-c4cc(O)cc(F)c4)c4c(N)ncnc43)n(C3CCCCC3)c(=O)c12 | < 1000
 | < 100 | > 10000 | > 10000 | Cc1cccc2cc(Cn3nc(-c4cccc(O)c4)c4c(N)ncnc43)n(-c3ccccc3)c(=O)c12 | < 100
 | < 100 | > 10000 | < 10000 | Cc1cccc2cc(Cn3nc(-c4cccc(O)c4)c4c(N)ncnc43)n(C3CCCCC3)c(=O)c12 | < 1000

IC50 [2] [nM] | IC50 [3] [nM] | IC50 [4] [nM] | IC50 (PI3K p110 beta/p85 alpha) [nM] | SMILES | EC50 [1] [nM]
 | < 100 | < 100000 | < 100 | CC(=O)Nc1nc2ccc(-c3nn(Cc4cc5cccc(Cl)c5c(=O)n4C(C)C)c4ncnc(N)c34)cc2s1 | < 100
< 100 | < 100 |  |  | CC(=O)Nc1nc2ccc(-c3nn(Cc4cc5cccc(C)c5c(=O)n4-c4ccccc4C)c4ncnc(N)c34)cc2o1 | 
 | < 100 | < 100000 | < 10000 | CC(=O)Nc1nc2ccc(-c3nn(Cc4cc5cccc(F)c5c(=O)n4C(C)C)c4ncnc(N)c34)cc2s1 | < 100
 | < 100 | > 10000 | < 10000 | Cc1cccnc1-n1c(Cn2nc(-c3ccc(Cl)c(O)c3)c3c(N)ncnc32)cc2cccc(C)c2c1=O | < 100
 | < 100 | > 10000 | > 10000 | Cc1cccc2cc(Cn3nc(C#C[C@@H](C)O)c4c(N)ncnc43)n(C3CCCCC3)c(=O)c12 | < 10000
 | < 100 | < 10000 | < 10000 | Cc1cccc2cc(Cn3nc(I)c4c(N)ncnc43)n(C3CC3)c(=O)c12 | < 1000
 | < 100 | < 10000 | > 10000 | Cc1ccccc1-n1c(Cn2nc(-c3ccc4ncnc(N)c4c3)c3c(N)ncnc32)cc2cccc(C)c2c1=O | < 1000
 | < 100 | > 10000 | < 10000 | Cc1cccc2cc(Cn3nc(-c4cccc(O)c4)c4c(N)ncnc43)n(-c3ccccc3Cl)c(=O)c12 | < 100
 | < 100 | < 10000 | < 10000 | Cc1ccccc1-n1c(Cn2nc(-c3cc(O)cc(F)c3)c3c(N)nccc32)cc2cccc(C)c2c1=O | < 100
 | < 100 | < 100000 | < 1000 | CCn1c(Cn2nc(-c3ccc4nc(NC(C)=O)sc4c3)c3c(N)ncnc32)cc2cccc(C)c2c1=O | < 100
 | < 100 | > 10000 | > 10000 | Cc1ccccc1-n1c(Cn2nc(-c3ccc(F)c(O)c3)c3c(N)ncnc32)cc2ccccc2c1=O | < 100
 | < 100 | < 100000 | < 100 | Nc1ncnc2c1c(-c1cc(O)cc(F)c1)nn2Cc1cc2cccc(Cl)c2c(=O)n1C1CC1 | < 100
 | < 100 | > 10000 | < 10000 | Cc1ccccc1-n1c(C(C)Nc2ncnc3[nH]cnc23)cc2cccc(C)c2c1=O (configuration not stated) | < 100
 | < 100 | > 10000 | < 10000 | Cc1cccc2cc(Cn3nc(C#C[C@@H](C)O)c4c(N)ncnc43)n(-c3ccccc3C(C)C)c(=O)c12 | < 100
< 100 | < 100 |  |  | Cc1cccc2cc([C@H](C)Nc3ncnc4[nH]nc(Cl)c34)n(-c3ccccc3)c(=O)c12 | 
